Assay: Test 4: metabolic stability test in human hepatic microsome
Format: in vitro ADME
Conditions: 0.1 mg/mL microsome, 0.1 μmol/L compound, NADPH, 37° C., 30 minutes
Experimental: Test 4: Metabolic Stability Test in Human Hepatic Microsome
The stability of the present compound in human hepatic microsome metabolism was evaluated as mentioned below. Human hepatic microsome was obtained from Xenontech. Human hepatic microsome, NADPH, and each test compound were mixed in 25 mmol/L phosphate buffer solution (pH 7.4) to reach the following concentrations as shown below, and the mixture was incubated at 37° C. for 30 minutes. • Human hepatic microsome: 0.1 mg/mL • NAPDH: 3.2 mmol/L • Test compound: 0.1 μmol/L
The residual ratio of the test compound in each sample after 30 minutes was measured by LC-MS, and the metabolic stability in human hepatic microsome was calculated from the following formula. Metabolic stability in human hepatic microsome (mL/min/mg protein)=−LN(residual ratio)/30/0.1

SMILES: Cn1ccc2c1CCN(CCN1CCN(c3nsc4ccccc34)CC1)C2=O [Example 61]
- Metabolic stability in human hepatic microsome: 0.056 mL/min/mg protein

SMILES: Cc1nc2c(o1)C(=O)N(CCN1CCN(c3nsc4ccccc34)CC1)CC2 [Example 45]
- Metabolic stability in human hepatic microsome: 0.032 mL/min/mg protein

SMILES: CC1CN(CCN2CCC(c3noc4ccccc34)CC2)C(=O)c2ncccc21 (centres unmarked) [Example 15]
- Metabolic stability in human hepatic microsome: 0.055 mL/min/mg protein

SMILES: Cn1ncc2c1CCCN(CCN1CCN(c3noc4ccccc34)CC1)C2=O [Example 80]
- Metabolic stability in human hepatic microsome: 0.012 mL/min/mg protein

SMILES: Cn1ncc2c1CCN(CCN1CCC(c3noc4ccccc34)CC1)C2=O [Example 130]
- Metabolic stability in human hepatic microsome: <0.05 mL/min/mg protein

SMILES: O=C1c2cncnc2CCN1CCN1CCC(c2noc3ccccc23)CC1 [Example 57]
- Metabolic stability in human hepatic microsome: 0.013 mL/min/mg protein

SMILES: Cc1nccc2c1C(=O)N(CCN1CCN(c3noc4ccccc34)CC1)CC2 [Example 85]
- Metabolic stability in human hepatic microsome: 0.046 mL/min/mg protein

SMILES: CC(C)n1ncc2c1CCN(CCN1CCC(c3noc4ccccc34)CC1)C2=O [Example 159]
- Metabolic stability in human hepatic microsome: <0.05 mL/min/mg protein

SMILES: Cc1cc2ccn(CCN3CCN(c4noc5ccccc45)CC3)c(=O)c2cn1 [Example 113, 2-{2-[4-(1,2-Benzoisoxazol-3-yl)piperazin-1-yl]ethyl}-6-methyl-2,7-naphthyridin-1(2H)-one]
- Metabolic stability in human hepatic microsome: 0.079 mL/min/mg protein

SMILES: Cn1ncc2c1CCCC(CCN1CCC(c3noc4ccccc34)CC1)C2=O (centres unmarked) [Example 30]
- Metabolic stability in human hepatic microsome: 0.065 mL/min/mg protein

SMILES: O=c1c2ncccc2ccn1CCN1CCC(c2noc3cc(F)ccc23)CC1 [Example 12]
- Metabolic stability in human hepatic microsome: 0.02 mL/min/mg protein

SMILES: Cc1ccc2c(n1)C(=O)N(CCN1CCN(c3noc4ccccc34)CC1)CC2 [Example 183]
- Metabolic stability in human hepatic microsome: <0.05 mL/min/mg protein

SMILES: Cc1nc2c(o1)CCCN(CCN1CCC(c3noc4ccccc34)CC1)C2=O [Example 157]
- Metabolic stability in human hepatic microsome: <0.05 mL/min/mg protein

SMILES: O=c1c2cncnc2ccn1CCN1CCC(c2noc3ccccc23)CC1 [Example 129]
- Metabolic stability in human hepatic microsome: 0.084 mL/min/mg protein

SMILES: CCn1ncc2c1CCN(CCN1CCN(c3nsc4ccccc34)CC1)C2=O [Example 64]
- Metabolic stability in human hepatic microsome: 0.064 mL/min/mg protein

SMILES: O=C1c2cccnc2CCN1CCN1CCC(c2noc3cc(F)ccc23)CC1 [Example 121]
- Metabolic stability in human hepatic microsome: <0.05 mL/min/mg protein

SMILES: O=C1c2cnn(C3CC3)c2CCN1CCN1CCC(c2noc3ccccc23)CC1 [Example 161]
- Metabolic stability in human hepatic microsome: <0.05 mL/min/mg protein

SMILES: Cc1c2c(nn1C)CCN(CCN1CCC(c3noc4ccccc34)CC1)C2=O [Example 37, 5-{2-[4-(1,2-Benzoisoxazol-3-yl)piperidin-1-yl]ethyl}-2,3-dimethyl-2,5,6,7-tetrahydro-4H-pyrazolo[4,3-c]pyridin-4-one]
- Metabolic stability in human hepatic microsome: 0.017 mL/min/mg protein

SMILES: O=C1c2ncccc2CCN1CCN1CCC(c2noc3cc(F)ccc23)CC1 [Example 125]
- Metabolic stability in human hepatic microsome: <0.05 mL/min/mg protein

SMILES: O=c1c2ncccc2ccn1CCN1CCN(c2noc3ccccc23)CC1 [Example 117]
- Metabolic stability in human hepatic microsome: <0.05 mL/min/mg protein

SMILES: Cn1ncc2c1CCC(CCN1CCN(c3nsc4ccccc34)CC1)C2=O (centres unmarked) [Example 29]
- Metabolic stability in human hepatic microsome: 0.063 mL/min/mg protein

SMILES: Cn1ncc2c1CCN(CCN1CCN(c3noc4ccccc34)CC1)C2=O [Example 131]
- Metabolic stability in human hepatic microsome: <0.05 mL/min/mg protein

SMILES: Cn1cc2c(n1)C(=O)N(CCN1CCN(c3nsc4ccccc34)CC1)CC2 [Example 50]
- Metabolic stability in human hepatic microsome: 0.038 mL/min/mg protein

SMILES: O=C1c2occc2CCN1CCN1CCC(c2noc3ccccc23)CC1 [Example 127]
- Metabolic stability in human hepatic microsome: <0.05 mL/min/mg protein

SMILES: O=C1c2ncccc2CCN1CCN1CCC(c2noc3cc(F)ccc23)CC1 [Example 4]
- Metabolic stability in human hepatic microsome: 0.011 mL/min/mg protein

SMILES: Cn1cc2c(n1)CCCN(CCN1CCN(c3nsc4ccccc34)CC1)C2=O [Example 42]
- Metabolic stability in human hepatic microsome: 0.100 mL/min/mg protein

SMILES: Cn1ncc2c1CCCN(CCN1CCN(c3nsc4ccccc34)CC1)C2=O [Example 44]
- Metabolic stability in human hepatic microsome: 0.04 mL/min/mg protein

SMILES: O=C1c2ncccc2CCN1CCN1CCC(c2noc3ccc(F)cc23)CC1 [Example 5]
- Metabolic stability in human hepatic microsome: <0.01 mL/min/mg protein

SMILES: O=C1c2ncccc2CCN1CCN1CCC(c2nsc3ccccc23)CC1 [Example 26]
- Metabolic stability in human hepatic microsome: <0.01 mL/min/mg protein

SMILES: Cc1ncc2c(n1)CCN(CCN1CCC(c3noc4ccccc34)CC1)C2=O [Example 88, 6-{2-[4-(1,2-Benzoisoxazol-3-yl)piperidin-1-yl]ethyl}-2-methyl-7,8-dihydropyrido[4,3-d]pyrimidin-5(6H)-one]
- Metabolic stability in human hepatic microsome: <0.01 mL/min/mg protein

SMILES: O=c1c2ncccc2ccn1CCN1CCN(c2nsc3ccccc23)CC1 [Example 8]
- Metabolic stability in human hepatic microsome: 0.064 mL/min/mg protein

SMILES: O=C1c2cn[nH]c2CCCN1CCN1CCC(c2noc3ccccc23)CC1 [Example 97, 5-{2-[4-(1,2-Benzoisoxazol-3-yl)piperidin-1-yl]ethyl}-5,6,7,8-tetrahydropyrazolo[4,3-c]azepin-4(1H)-one]
- Metabolic stability in human hepatic microsome: <0.01 mL/min/mg protein

SMILES: Cn1cnc2c1C(=O)N(CCN1CCC(c3noc4ccccc34)CC1)CCC2 [Example 134]
- Metabolic stability in human hepatic microsome: <0.05 mL/min/mg protein

SMILES: O=C1c2ncccc2CCC1CCN1CCC(c2noc3ccccc23)CC1 (centres unmarked) [Example 24]
- Metabolic stability in human hepatic microsome: 0.018 mL/min/mg protein

SMILES: O=c1c2cnccc2ccn1CCN1CCN(c2noc3ccccc23)CC1 [Example 116]
- Metabolic stability in human hepatic microsome: 0.1 mL/min/mg protein

SMILES: Cn1cc2c(n1)CCN(CCN1CCC(c3noc4ccccc34)CC1)C2=O [Example 17]
- Metabolic stability in human hepatic microsome: <0.01 mL/min/mg protein

SMILES: O=C1c2cncnc2CCN1CCN1CCN(c2nsc3ccccc23)CC1 [Example 58]
- Metabolic stability in human hepatic microsome: 0.092 mL/min/mg protein

SMILES: Cn1ncc2c1CCN(CCN1CCN(c3nsc4ccccc34)CC1)C2=O [Example 63]
- Metabolic stability in human hepatic microsome: <0.01 mL/min/mg protein

SMILES: CC(CN1CCC(c2noc3cc(F)ccc23)CC1)N1CCc2cccnc2C1=O (centres unmarked) [Example 122]
- Metabolic stability in human hepatic microsome: <0.05 mL/min/mg protein

SMILES: CC1CN(CCN2CCC(c3noc4ccccc34)CC2)C(=O)c2ccn(C)c21 (centres unmarked) [Example 82]
- Metabolic stability in human hepatic microsome: 0.072 mL/min/mg protein

SMILES: Cc1n[nH]c2c1C(=O)N(CCN1CCC(c3noc4ccccc34)CC1)CC2 [Example 99, 5-{2-[4-(1,2-Benzoisoxazol-3-yl)piperidin-1-yl]ethyl}-3-methyl-1,5,6,7-tetrahydro-4H-pyrazolo[4,3-c]pyridin-4-one]
- Metabolic stability in human hepatic microsome: <0.01 mL/min/mg protein

SMILES: O=C1c2ncccc2CCN1CCN1CCN(c2nsc3ccccc23)CC1 [Example 7]
- Metabolic stability in human hepatic microsome: 0.041 mL/min/mg protein

SMILES: O=C1c2nc(Cl)ccc2CCN1CCN1CCN(c2noc3ccccc23)CC1 [Example 144]
- Metabolic stability in human hepatic microsome: <0.05 mL/min/mg protein

SMILES: O=C1c2oc(C3CC3)nc2CCN1CCN1CCC(c2noc3ccccc23)CC1 [Example 68]
- Metabolic stability in human hepatic microsome: 0.056 mL/min/mg protein

SMILES: O=C1c2ncccc2CCN1CCN1CCN(c2noc3cc(F)ccc23)CC1 [Example 123]
- Metabolic stability in human hepatic microsome: <0.05 mL/min/mg protein

SMILES: Cc1nc2c(o1)C(=O)N(CCN1CCN(c3nsc4ccccc34)CC1)CCC2 [Example 46]
- Metabolic stability in human hepatic microsome: 0.018 mL/min/mg protein

SMILES: O=C1c2c(Br)n[nH]c2CCN1CCN1CCC(c2noc3ccccc23)CC1 [Example 192, 5-{2-[4-(1,2-Benzoisoxazol-3-yl)piperidin-1-yl]ethyl}-3-bromo-1,5,6,7-tetrahydro-4H-pyrazolo[4,3-c]pyridin-4-one]
- Metabolic stability in human hepatic microsome: <0.05 mL/min/mg protein

SMILES: O=C1c2ncccc2CCN1CCN1CCN(c2noc3ccccc23)CC1 [Example 1, 7-{2-[4-(1,2-Benzoisoxazol-3-yl)piperazin-1-yl]ethyl}-6,7-dihydro-1,7-naphthyridin-8(5H)-one]
- Metabolic stability in human hepatic microsome: <0.01 mL/min/mg protein

SMILES: COc1cc2c(cn1)C(=O)N(CCN1CCC(c3noc4ccccc34)CC1)CC2 [Example 14]
- Metabolic stability in human hepatic microsome: <0.01 mL/min/mg protein

SMILES: Cc1cc2c(cn1)C(=O)N(CCN1CCC(c3noc4ccccc34)CC1)CC2 [Example 135]
- Metabolic stability in human hepatic microsome: <0.05 mL/min/mg protein

SMILES: Cn1cc2c(n1)CCCN(CCN1CCC(c3noc4ccccc34)CC1)C2=O [Example 41]
- Metabolic stability in human hepatic microsome: <0.01 mL/min/mg protein

SMILES: Cc1ccc2c(n1)C(=O)N(CCN1CCC(c3noc4ccccc34)CC1)CC2 [Example 184]
- Metabolic stability in human hepatic microsome: <0.05 mL/min/mg protein

SMILES: COc1ncc2c(n1)CCN(CCN1CCN(c3nsc4ccccc34)CC1)C2=O [Example 177]
- Metabolic stability in human hepatic microsome: 0.095 mL/min/mg protein

Reference: US11466007B2, “Substituted lactams showing serotonin 5-HT receptor activity” (Sumitomo Pharma Co., Ltd., priority 2018, dated 2022)
